Patent US8076343B2, “Benzimidazoles useful as inhibitors of protein kinases” (Vertex Pharmaceuticals Incorporated, priority 2005, dated 2011)

melting point: 87 to 88 °C
Structure (SMILES): Nc1nc2ccccc2n1-c1cc(NC2CCCNC2)ncn1 (stereo not shown) [Compound 3]
